According to article PMC11674187, “Inhibitory Effects of Cenobamate on Multiple Human Cardiac Ion Channels and Possible Arrhythmogenic Consequences” (Biomolecules, 2024):
Several values for one entry are separate records, joined by “and”; a condition that tells them apart may be missing. Equal values may be shown once. Read-outs that look alike come from different tables or passages of the source.

Legend:
hNav1.5 = biological target: T1, hNav1.5 (Homo sapiens, UniProt Q14524); assay: Whole-cell patch-clamp on HEK293T cells, peak INa (standard, activation and inactivation protocols); format: cell-based
T1 construct: host or cells: HEK293T
Procedure: (§1) Experiments were performed on HEK293T cell lines with persistent/inducible expression of different human cardiac ion channel isoforms: hNav1.5 and hKv7.1 + minK (Anaxon AG, Bern, Switzerland), hCav1.2 (α1c + β2 + α2δ1) (B’SYS GmbH, Witterswil, Switzerland), and hKv11.1 (hERG) (Cytocentrics Bioscience GmbH, Rostock, Germany). The cell lines were grown in standard conditions (37 °C, 5% CO2, 90% humidity) in DMEM:F12 medium (D8900, Sigma-Aldrich, Burlington, MA, USA) buffered with 15 mM HEPES, containing 3.15 g/L D-glucose and 0.055 g/L sodium pyruvate, supplemented with 1.2 g/L sodium bicarbonate, 10% fetal bovine serum (F2442, Sigma-Aldrich, Burlington, MA, USA), 2 mM L-glutamine (G7513, Sigma-Aldrich, Burlington, MA, USA), 1% penicillin–streptomycin (P4333, Sigma-Aldrich, Burlington, MA, USA), and with specific antibiotics for selection of transfected cells or induction of gene expression according to manufacturers’ instructions. The medium was changed every 2–3 days and the cells were passed weekly upon detachment with trypsin–EDTA solution. All cell culture media and solutions were sterile filtered with 0.22 μm polyvinylidene fluoride filters. Ncyte® vCardiomyocytes (Ncardia, Leiden, The Netherlands) were cultured in 24-well plates precoated with bovine fibronectin, following manufacturer’s instructions. For the experiments, cardiomyocytes were detached as described previously and plated on ϕ 10 mm glass coverslips, like the other cell lines.
(§2) Manual whole-cell patch-clamp experiments were performed at room temperature, with equipment as described in previous studies. Pipettes were pulled from Clark borosilicate glass capillaries with inner filament (GC150F-10, Harvard Apparatus, Holliston, MA, USA) and had typical resistances of 2–3 MΩ. Recordings were performed with a WPC-100 resistive feedback amplifier (ESF electronic, Göttingen, Germany) or an Axopatch 200B amplifier (Axon Instruments—Molecular Devices, San Jose, CA, USA) connected to a Digidata 1322A interface driven by the pClamp 8.2 Clampex module (Axon Instruments, part of Molecular Devices, San Jose, CA, USA). For different types of ion channel, we applied specific voltage-clamp protocols as follows: • - For hERG, a standard two-step activation protocol was used: holding at −70 mV, a 100 ms step at −50 mV used as current reference for measurements, a 2 s depolarizing step at +40 mV, followed by a 2 s step at −50 mV to elicit the peak hERG current by rapid recovery from inactivation, repeated sweeps at 10 s intervals, plus specific protocols to assess the voltage dependence of activation and inactivation, as described in Thomet et al., 2021 [11]. • - For hKv7.1 + minK, a general two-step activation protocol was used: holding at −110 mV, a 250 ms step at −80 mV with a brief (50 ms) step at −90 mV at the middle to monitor seal quality, a 3000 ms depolarizing step at +60 mV, followed by a 1000 ms step at −50 mV; repeated sweeps at 20 s intervals. • - For hCav1.2, a pharmacology protocol with holding at −80 mV, a first 100 ms step at −50 mV and a second 200 ms step at 0 mV, repeated sweeps at 20 s intervals with drug application after 5 sweeps if current levels were steady, plus an activation–inactivation protocol with holding at −80 mV, 1000 ms depolarizing steps from −80 to +50 mV in 10 mV increments, followed by 250 ms steps at +10 mV and a return to −80 mV; 14 sweeps at 20 s intervals. • - For hNav1.5, multiple voltage protocols were used, including the following: • - A standard pharmacology protocol with holding at −90 mV, a 20 ms step at −110 mV for seal monitoring, a 40 ms activation step at −10 mV, and repeated sweeps at 1 s intervals. […]

[1] = cited from earlier work; for healthy volunteers with QT interval shortening greater than 20 ms: study YKP3089C020, ref [9] p. 11
[2] = cited from earlier work
[3] = biological target: T2, hCav1.2 (α1c + β2 + α2δ1) (Homo sapiens, UniProt Q13936); assay: Whole-cell patch-clamp on HEK293T cells, ICaL; format: cell-based
T2 construct: host or cells: HEK293T
Procedure: as §1, §2

[4] = rabbit; ref [5] p.10; cited from earlier work
IKr (hERG) = settings: read-out: apparent IC50 for IKr (hERG); used for further computations; ref [5] p. 10; cited from earlier work
neuronal Na+ channels = test system: neuronal Na+ channels; design: method as in PMID 33993416; settings: ref [6]; read-out: IC50 on late (persistent) neuronal Na+ current; cited from earlier work

T2 sequence (Q13936 whole entry): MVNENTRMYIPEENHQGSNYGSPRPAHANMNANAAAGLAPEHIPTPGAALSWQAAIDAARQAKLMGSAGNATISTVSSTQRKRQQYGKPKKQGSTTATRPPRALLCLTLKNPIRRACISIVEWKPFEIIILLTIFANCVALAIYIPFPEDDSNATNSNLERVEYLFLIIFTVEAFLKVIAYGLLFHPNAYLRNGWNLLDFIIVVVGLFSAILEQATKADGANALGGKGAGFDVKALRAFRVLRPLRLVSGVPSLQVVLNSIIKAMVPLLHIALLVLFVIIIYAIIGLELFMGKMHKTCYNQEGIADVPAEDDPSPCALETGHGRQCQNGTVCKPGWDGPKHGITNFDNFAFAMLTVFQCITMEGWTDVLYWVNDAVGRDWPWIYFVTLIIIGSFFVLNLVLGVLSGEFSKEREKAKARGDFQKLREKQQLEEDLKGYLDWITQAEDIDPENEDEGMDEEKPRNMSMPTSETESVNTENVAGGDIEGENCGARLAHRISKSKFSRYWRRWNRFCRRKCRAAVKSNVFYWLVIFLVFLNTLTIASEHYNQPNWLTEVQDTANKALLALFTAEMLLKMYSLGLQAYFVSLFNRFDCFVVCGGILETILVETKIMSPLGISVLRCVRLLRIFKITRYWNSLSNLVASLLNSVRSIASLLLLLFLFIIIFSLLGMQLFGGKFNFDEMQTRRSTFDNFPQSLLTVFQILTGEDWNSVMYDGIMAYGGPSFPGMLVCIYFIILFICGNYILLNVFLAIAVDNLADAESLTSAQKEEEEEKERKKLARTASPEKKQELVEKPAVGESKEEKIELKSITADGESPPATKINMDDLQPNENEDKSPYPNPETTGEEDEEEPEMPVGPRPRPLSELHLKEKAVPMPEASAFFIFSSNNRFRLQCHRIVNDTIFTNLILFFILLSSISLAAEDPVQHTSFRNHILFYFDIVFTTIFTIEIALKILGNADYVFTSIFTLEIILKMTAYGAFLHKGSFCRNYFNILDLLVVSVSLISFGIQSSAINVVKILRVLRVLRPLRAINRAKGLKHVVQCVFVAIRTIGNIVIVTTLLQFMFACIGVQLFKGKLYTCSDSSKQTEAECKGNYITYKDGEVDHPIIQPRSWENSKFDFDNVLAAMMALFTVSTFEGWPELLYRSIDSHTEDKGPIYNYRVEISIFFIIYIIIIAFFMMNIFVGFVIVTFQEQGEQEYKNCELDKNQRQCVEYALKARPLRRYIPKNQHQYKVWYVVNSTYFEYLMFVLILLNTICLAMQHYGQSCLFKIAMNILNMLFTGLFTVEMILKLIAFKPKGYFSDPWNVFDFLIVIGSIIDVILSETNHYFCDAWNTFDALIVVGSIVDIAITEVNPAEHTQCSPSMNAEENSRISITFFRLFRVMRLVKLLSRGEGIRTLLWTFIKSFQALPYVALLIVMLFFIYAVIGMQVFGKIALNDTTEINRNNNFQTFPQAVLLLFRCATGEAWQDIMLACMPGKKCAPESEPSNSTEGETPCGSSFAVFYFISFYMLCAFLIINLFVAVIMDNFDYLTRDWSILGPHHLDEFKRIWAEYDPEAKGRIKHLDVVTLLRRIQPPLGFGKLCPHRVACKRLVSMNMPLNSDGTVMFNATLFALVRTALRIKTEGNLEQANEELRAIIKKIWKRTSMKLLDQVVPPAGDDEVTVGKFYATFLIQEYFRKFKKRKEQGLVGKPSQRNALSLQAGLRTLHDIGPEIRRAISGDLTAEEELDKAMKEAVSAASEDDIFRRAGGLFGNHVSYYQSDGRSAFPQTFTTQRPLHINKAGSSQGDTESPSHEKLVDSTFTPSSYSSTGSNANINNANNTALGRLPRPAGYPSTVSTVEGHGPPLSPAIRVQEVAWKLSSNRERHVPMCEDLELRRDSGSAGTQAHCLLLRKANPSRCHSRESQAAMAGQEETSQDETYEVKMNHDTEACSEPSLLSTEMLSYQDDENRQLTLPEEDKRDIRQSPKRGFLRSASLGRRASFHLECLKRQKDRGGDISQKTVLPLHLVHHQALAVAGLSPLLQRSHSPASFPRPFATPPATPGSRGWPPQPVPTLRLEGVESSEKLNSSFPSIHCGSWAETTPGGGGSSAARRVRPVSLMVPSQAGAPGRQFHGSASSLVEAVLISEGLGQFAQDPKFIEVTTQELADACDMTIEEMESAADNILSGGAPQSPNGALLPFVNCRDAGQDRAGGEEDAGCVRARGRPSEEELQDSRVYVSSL
T2 sequence (Q08289 whole entry partner): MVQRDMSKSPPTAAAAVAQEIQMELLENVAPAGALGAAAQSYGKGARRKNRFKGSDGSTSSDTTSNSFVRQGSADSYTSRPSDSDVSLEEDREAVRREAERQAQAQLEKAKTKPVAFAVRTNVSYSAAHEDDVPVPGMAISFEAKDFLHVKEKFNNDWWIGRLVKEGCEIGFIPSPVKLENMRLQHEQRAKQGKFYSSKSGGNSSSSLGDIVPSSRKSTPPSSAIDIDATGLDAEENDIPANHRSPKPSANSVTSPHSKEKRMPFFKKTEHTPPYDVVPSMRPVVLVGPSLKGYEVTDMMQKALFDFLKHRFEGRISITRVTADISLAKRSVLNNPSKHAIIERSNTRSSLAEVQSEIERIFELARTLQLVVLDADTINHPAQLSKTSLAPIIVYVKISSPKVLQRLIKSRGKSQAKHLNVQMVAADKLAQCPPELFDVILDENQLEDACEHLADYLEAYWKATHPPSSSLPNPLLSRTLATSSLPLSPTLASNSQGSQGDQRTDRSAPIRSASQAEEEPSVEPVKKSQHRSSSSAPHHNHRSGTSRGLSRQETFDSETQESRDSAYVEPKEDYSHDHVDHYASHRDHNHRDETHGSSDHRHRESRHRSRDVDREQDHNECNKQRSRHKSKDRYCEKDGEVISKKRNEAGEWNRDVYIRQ
T2 sequence (P54289 25-946 partner limits assumed): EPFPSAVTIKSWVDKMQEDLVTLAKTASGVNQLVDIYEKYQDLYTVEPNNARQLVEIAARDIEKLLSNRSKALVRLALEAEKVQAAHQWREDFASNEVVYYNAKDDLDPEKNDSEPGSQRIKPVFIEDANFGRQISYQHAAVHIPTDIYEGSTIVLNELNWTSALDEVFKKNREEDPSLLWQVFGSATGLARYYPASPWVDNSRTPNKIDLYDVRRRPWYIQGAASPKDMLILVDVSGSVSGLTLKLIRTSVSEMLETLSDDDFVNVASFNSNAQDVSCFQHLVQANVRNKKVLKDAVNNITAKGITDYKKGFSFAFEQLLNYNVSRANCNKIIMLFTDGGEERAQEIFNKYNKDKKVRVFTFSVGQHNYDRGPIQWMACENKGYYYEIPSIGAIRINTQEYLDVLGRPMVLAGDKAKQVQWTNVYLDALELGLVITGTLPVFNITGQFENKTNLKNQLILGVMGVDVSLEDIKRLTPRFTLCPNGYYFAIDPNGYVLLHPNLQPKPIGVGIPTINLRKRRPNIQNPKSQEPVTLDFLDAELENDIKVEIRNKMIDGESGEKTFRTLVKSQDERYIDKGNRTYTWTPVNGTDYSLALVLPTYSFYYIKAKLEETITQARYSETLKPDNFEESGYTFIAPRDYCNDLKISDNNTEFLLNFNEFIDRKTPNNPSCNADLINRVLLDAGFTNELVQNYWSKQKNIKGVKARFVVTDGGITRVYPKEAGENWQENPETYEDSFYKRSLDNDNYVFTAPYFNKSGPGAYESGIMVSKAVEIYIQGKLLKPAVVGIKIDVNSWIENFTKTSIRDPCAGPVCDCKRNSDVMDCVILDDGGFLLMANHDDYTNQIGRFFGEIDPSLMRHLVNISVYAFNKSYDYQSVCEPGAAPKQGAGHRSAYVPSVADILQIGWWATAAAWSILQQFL
T2 sequence (P54289 947-1103 partner limits assumed): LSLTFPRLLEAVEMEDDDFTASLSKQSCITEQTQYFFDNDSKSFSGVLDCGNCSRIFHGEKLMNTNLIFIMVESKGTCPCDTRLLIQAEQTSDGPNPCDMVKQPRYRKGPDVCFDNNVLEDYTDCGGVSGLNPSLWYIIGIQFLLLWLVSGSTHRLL

NC(=O)O[C@@H](Cn1ncnn1)c1ccccc1Cl [cenobamate]
inhibition at 10 µM (hNav1.5; HEK-293T, cenobamate 10 µM, read-out: % INa inhibition (peak), mean (Table S2)): 8.6%
inhibition at 10 µM (hNav1.5; HEK-293T, cenobamate 10 µM, read-out: % INa inhibition (peak), single experiments (Table S2)): 8.58%
inhibition at 40 µM (hNav1.5; HEK-293T, cenobamate 40 µM, read-out: % INa inhibition (peak), mean (Table S2)): 37.7%
inhibition at 100 µM (hNav1.5; HEK-293T, cenobamate 100 µM, read-out: % INa inhibition (peak), mean (Table S2)): 49%
inhibition at 100 µM (hNav1.5; HEK-293T, cenobamate 100 µM, read-out: % INa inhibition (peak), single experiments (Table S2)): 52.7%
inhibition at 200 µM (hNav1.5; HEK-293T, cenobamate 200 µM, read-out: % INa inhibition (peak), mean (Table S2)): 69.9%
inhibition at 200 µM (hNav1.5; HEK-293T, cenobamate 200 µM, standard protocol, step at -10 mV, initial set, mean (SD), n = 6, read-out: average inhibition of peak INa): 69.5%
inhibition at 1000 µM (hNav1.5; HEK-293T, cenobamate 1000 µM, read-out: % INa inhibition (peak), mean (Table S2)): 89.3%
inhibition at 1000 µM (hNav1.5; HEK-293T, cenobamate 1000 µM, read-out: % INa inhibition (peak), single experiments (Table S2)): 89.6%
IC50 (hNav1.5; INaIC50 (model script), value entered in C++ script): 87.6 µM
IC50 (hNav1.5; apparent IC50 for peak INa inhibition, Hill coefficient nH = 1, room temperature): 87.6 µM and < 100 µM
% INa inhibition (peak), single experiments (Table S2) (hNav1.5; cenobamate 10 µM): 9.79% and 10.02% and 5.97%
% INa inhibition (peak), single experiments (Table S2) (hNav1.5; cenobamate 40 µM): 36.42% and 24.23% and 44.79% and 44.54% and 38.53%
% INa inhibition (peak), single experiments (Table S2) (hNav1.5; cenobamate 100 µM): 51.80% and 49.36% and 42.07%
% INa inhibition (peak), single experiments (Table S2) (hNav1.5; cenobamate 200 µM): 64.55% and 87.37% and 54.65% and 52.32% and 72.86%
voltage shifts of voltage dependence of activation and steady-state inactivation (hNav1.5; cenobamate 200 µM, both activation and inactivation): > 10 mV
voltage dependence of peak INa inhibition (hNav1.5; cenobamate 200 µM, multiple depolarizing steps): virtually voltage-independent
average inhibition of peak INa (hNav1.5; cenobamate 200 µM, standard protocol, step at -10 mV, initial set, mean (SD), n = 6): 69.53 ± 14.63%
% INa inhibition, single experiments (Table S1) (hNav1.5; cenobamate 200 µM, step at -10 mV): 56.27% and 68.71% and 86.95% and 54.87% and 87.66% and 62.74%
% INa inhibition (peak), single experiments (Table S2) (hNav1.5; cenobamate 1000 µM): 91.76% and 89.36% and 86.34%
healthy volunteers with QT interval shortening greater than 20 ms ([1]; 200 mg oral dose, 6–17% with placebo): 31%
healthy volunteers with QT interval shortening greater than 20 ms ([1]; 500 mg): 66%
QTc interval shortening ([1]; ref [9] pp. 11–12): > 20 ms
QTc interval under cenobamate (not below) ([1]; ref [9] pp. 11–12): ≥ 300 ms
peak plasma therapeutic concentration (Cmax) ([2]; 400 mg/day, study YKP3089C018, ref [5] p. 13): 45500 ng/mL
Cmax ([2]; read-out: Cmax (maximal effective therapeutic plasma concentration), 400 mg/day, ref [5] p. 13 / p. 10): 170 µM
Cmax ([2]; read-out: Cmax (model script), value entered in C++ script, ref [5]): 170 µM
inhibition at 20 µM ([3]; HEK-293T, cenobamate 20 µM, read-out: % ICaL inhibition, mean (Table S5)): 6.65%
inhibition at 100 µM ([3]; HEK-293T, cenobamate 100 µM, read-out: % ICaL inhibition, mean (Table S5)): 11.3%
inhibition at 100 µM ([3]; HEK-293T, cenobamate 100 µM, read-out: % ICaL inhibition, single experiments (Table S5)): 11.2%
inhibition at 200 µM ([3]; HEK-293T, cenobamate 200 µM, read-out: % ICaL inhibition, mean (Table S5)): 34.5%
inhibition at 200 µM ([3]; HEK-293T, cenobamate 200 µM, step at 0 mV, initial set, mean (SD), n = 4, read-out: average inhibition of peak ICaL amplitude): 39.3 ± 13.8%
inhibition at 400 µM ([3]; HEK-293T, cenobamate 400 µM, read-out: % ICaL inhibition, mean (Table S5)): 42%
inhibition at 400 µM ([3]; HEK-293T, cenobamate 400 µM, read-out: % ICaL inhibition, single experiments (Table S5)): 39%
inhibition at 1000 µM ([3]; HEK-293T, cenobamate 1000 µM, read-out: % ICaL inhibition, mean (Table S5)): 65.3%
IC50 ([3]; ICaLIC50 (model script), value entered in C++ script): 510 µM
IC50 ([3]; apparent IC50 for hCav1.2 (ICaL) inhibition, unitary Hill coefficient): 510 µM
% ICaL inhibition, single experiments (Table S5) ([3]; cenobamate 100 µM): 11.40% and 10.58% and 12.03%
average inhibition of peak ICaL amplitude ([3]; cenobamate 200 µM, step at 0 mV, initial set, mean (SD), n = 4): 39.26 ± 13.78%
% ICaL inhibition, single experiments (Table S5) ([3]; cenobamate 400 µM): 41.25% and 47.37% and 40.40%
% ICaL inhibition, single experiments (Table S5) ([3]; cenobamate 1000 µM): 77.36% and 58.39% and 76.52% and 52.87% and 61.56%
protein binding [4]: 35.4%
IC50 (IKr (hERG)): 1870 µM
IC50 (neuronal Na+ channels): 59 µM
